Measured values from ChEMBL document CHEMBL4004875, “Synthesis of bulky-tailed sulfonamides incorporating pyrido[2,3-d][1,2,4]triazolo[4,3-a]pyrimidin-1(5H)-yl) moieties and evaluation of their carbonic anhydrases I, II, IV and IX inhibitory effects” (Bioorg Med Chem, 2017).
Activity calls are given as the source filed them. No cut-off for these calls is given here.

What was measured:
Carbonic anhydrase 9 = Carbonic anhydrase 9 (Homo sapiens, UniProt Q16790)
Description: Inhibition of recombinant human tumor-associated carbonic anhydrase 9 assessed as inhibition of CO2 hydration preincubated for 15 mins prior to testing by phenol red based stopped-flow CO2 hydration assay

Carbonic anhydrase 1 [1] = biological target: T1, Carbonic anhydrase 1 (Homo sapiens, UniProt P00915); assay: Inhibition of recombinant human cytosolic carbonic anhydrase 1 assessed as inhibition of CO2 hydration preincubated for 15 mins prior to testing by phenol red based stopped-flow CO2 hydration assay
Target sequence in this assay (P00915 whole entry): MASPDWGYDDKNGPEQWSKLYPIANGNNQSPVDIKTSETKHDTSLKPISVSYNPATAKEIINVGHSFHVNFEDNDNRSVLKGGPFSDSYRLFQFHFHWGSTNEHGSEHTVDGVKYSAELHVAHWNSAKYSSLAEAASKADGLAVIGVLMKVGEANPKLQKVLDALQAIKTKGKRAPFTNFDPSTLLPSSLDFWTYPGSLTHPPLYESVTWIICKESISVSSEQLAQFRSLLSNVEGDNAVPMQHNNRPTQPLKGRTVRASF

Carbonic anhydrase 4 [2] = biological target: T2, Carbonic anhydrase 4 (Homo sapiens, UniProt P22748); assay: Inhibition of recombinant human membrane-associated carbonic anhydrase 4 assessed as inhibition of CO2 hydration preincubated for 15 mins prior to testing by phenol red based stopped-flow CO2 hydration assay
T2 sequence (P22748 whole entry): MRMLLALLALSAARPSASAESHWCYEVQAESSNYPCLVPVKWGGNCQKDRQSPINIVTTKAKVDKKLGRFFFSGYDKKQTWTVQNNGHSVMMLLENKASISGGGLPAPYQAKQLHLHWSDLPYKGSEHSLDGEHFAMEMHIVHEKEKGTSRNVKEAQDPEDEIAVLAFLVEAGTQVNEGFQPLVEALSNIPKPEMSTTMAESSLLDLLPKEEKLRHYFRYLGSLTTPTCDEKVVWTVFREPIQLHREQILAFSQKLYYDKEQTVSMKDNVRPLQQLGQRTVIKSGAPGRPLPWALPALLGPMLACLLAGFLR

Carbonic anhydrase 2 = Carbonic anhydrase 2 (Homo sapiens, UniProt P00918); assay: Inhibition of recombinant human carbonic anhydrase 2 assessed as inhibition of CO2 hydration preincubated for 15 mins prior to testing by phenol red based stopped-flow CO2 hydration assay
Carbonic anhydrase 1 [3] = biological target: T1, Carbonic anhydrase 1; assay: Inhibition of recombinant human cytosolic carbonic anhydrase 1 assessed as inhibition of CO2 hydration up to 100 uM preincubated for 15 mins prior to testing by phenol red based stopped-flow CO2 hydration assay
Target sequence in this assay (P00915 2-261 limits assumed): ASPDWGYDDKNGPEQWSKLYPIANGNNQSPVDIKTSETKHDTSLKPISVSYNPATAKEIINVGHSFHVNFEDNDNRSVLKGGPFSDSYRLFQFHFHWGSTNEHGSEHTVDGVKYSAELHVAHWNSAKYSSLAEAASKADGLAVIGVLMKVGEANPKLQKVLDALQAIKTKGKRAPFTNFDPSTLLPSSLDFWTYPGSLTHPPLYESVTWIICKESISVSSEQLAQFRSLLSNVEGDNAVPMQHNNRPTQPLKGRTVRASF

Carbonic anhydrase 4 [4] = biological target: T2, Carbonic anhydrase 4; assay: Inhibition of recombinant human membrane-associated carbonic anhydrase 4 assessed as inhibition of CO2 hydration up to 100 uM preincubated for 15 mins prior to testing by phenol red based stopped-flow CO2 hydration assay

Row | Structure (SMILES) | Ki (Carbonic anhydrase 9) [nM] | also measured
1 | CC(=O)c1nn(-c2ccc(S(N)(=O)=O)cc2)c2nc3nc(-c4cccs4)cc(-c4ccccc4)c3c(=O)n12 | 1120 | Ki (Carbonic anhydrase 1 [1]): 6780 nM; Ki (Carbonic anhydrase 4 [2]): 4790 nM; Ki (Carbonic anhydrase 2): 730 nM
2 | CC(=O)c1nn(-c2ccc(S(N)(=O)=O)cc2)c2nc3nc(-c4cccs4)cc(-c4ccc(Cl)cc4)c3c(=O)n12 | 990 | inhibition (Carbonic anhydrase 1 [3]): inactive
3 | CCOC(=O)c1nn(-c2ccc(S(N)(=O)=O)cc2)c2nc3nc(-c4ccc(Cl)cc4)cc(-c4ccccc4)c3c(=O)n12 | 3260 | inhibition (Carbonic anhydrase 1 [3]): inactive
4 | CCOC(=O)c1nn(-c2ccc(S(N)(=O)=O)cc2)c2nc3nc(-c4ccc(Cl)cc4)cc(-c4ccc(Cl)cc4)c3c(=O)n12 | 1460 | –
5 | CCOC(=O)c1nn(-c2ccc(S(N)(=O)=O)cc2)c2nc3nc(-c4ccc(Cl)cc4)cc(-c4ccc(OC)cc4)c3c(=O)n12 | 1450 | inhibition (Carbonic anhydrase 4 [4]): inactive
6 | CC(=O)c1nn(-c2ccc(S(N)(=O)=O)cc2)c2nc3nc(-c4ccc(Cl)cc4)cc(-c4ccc(Cl)cc4)c3c(=O)n12 | 350 | –
7 | CCOC(=O)c1nn(-c2ccc(S(N)(=O)=O)cc2)c2nc3nc(-c4cccs4)cc(-c4ccc(F)cc4)c3c(=O)n12 | 1620 | inhibition (Carbonic anhydrase 1 [3]): inactive
8 | CCOC(=O)c1nn(-c2ccc(S(N)(=O)=O)cc2)c2nc3nc(-c4cccs4)cc(-c4ccccc4)c3c(=O)n12 | 1900 | inhibition (Carbonic anhydrase 4 [4]): inactive
9 | COc1ccc(-c2cc(-c3cccs3)nc3nc4n(-c5ccc(S(N)(=O)=O)cc5)nc(C(C)=O)n4c(=O)c23)cc1 | 420 | –
10 | CCOC(=O)c1nn(-c2ccc(S(N)(=O)=O)cc2)c2nc3nc(-c4ccc(Cl)cc4)cc(-c4ccc([N+](=O)[O-])cc4)c3c(=O)n12 | 2460 | –
11 | CCOC(=O)c1nn(-c2ccc(S(N)(=O)=O)cc2)c2nc3nc(-c4cccs4)cc(-c4ccc(OC)cc4)c3c(=O)n12 | 380 | –
12 | CCOC(=O)c1nn(-c2ccc(S(N)(=O)=O)cc2)c2nc3nc(-c4cccs4)cc(-c4ccc(Cl)cc4)c3c(=O)n12 | 390 | –
13 | CCOC(=O)c1nn(-c2ccc(S(N)(=O)=O)cc2)c2nc3nc(-c4cccs4)cc(-c4ccc([N+](=O)[O-])cc4)c3c(=O)n12 | 1100 | –
14 | CCOC(=O)c1nn(-c2ccc(S(N)(=O)=O)cc2)c2nc3nc(-c4ccc(Cl)cc4)cc(-c4ccc(F)cc4)c3c(=O)n12 | 3240 | –

Now those with a lower Ki (Carbonic anhydrase 9), led by results:

Row | Ki (Carbonic anhydrase 9) [nM] | Structure (SMILES) | also measured
15 | 180 | CC(=O)c1nn(-c2ccc(S(N)(=O)=O)cc2)c2nc3nc(-c4ccc(Cl)cc4)cc(-c4ccccc4)c3c(=O)n12 | –
16 | 20 | Cc1ccc(-c2cc(C(F)(F)F)nn2-c2ccc(S(N)(=O)=O)cc2)cc1 [CELECOXIB] | Ki (Carbonic anhydrase 4 [2]): 290 nM
17 | 330 | CC(=O)c1nn(-c2ccc(S(N)(=O)=O)cc2)c2nc3nc(-c4ccc(Cl)cc4)cc(-c4ccc([N+](=O)[O-])cc4)c3c(=O)n12 | –
18 | 330 | COc1ccc(-c2cc(-c3ccc(Cl)cc3)nc3nc4n(-c5ccc(S(N)(=O)=O)cc5)nc(C(C)=O)n4c(=O)c23)cc1 | –
19 | 190 | CC(=O)c1nn(-c2ccc(S(N)(=O)=O)cc2)c2nc3nc(-c4cccs4)cc(-c4ccc(F)cc4)c3c(=O)n12 | –
20 | 160 | CC(=O)c1nn(-c2ccc(S(N)(=O)=O)cc2)c2nc3nc(-c4cccs4)cc(-c4ccc([N+](=O)[O-])cc4)c3c(=O)n12 | –
21 | 250 | CC(=O)c1nn(-c2ccc(S(N)(=O)=O)cc2)c2nc3nc(-c4ccc(Cl)cc4)cc(-c4ccc(F)cc4)c3c(=O)n12 | –
